ChEMBL document CHEMBL4393686, “InCl3 mediated heteroarylation of indoles and their derivatization via CH activation strategy: Discovery of 2-(1H-indol-3-yl)-quinoxaline derivatives as a new class of PDE4B selective inhibitors for arthritis and/or multiple sclerosis” (Eur J Med Chem, 2019)
Calls of active or inactive are those of the source. The rule behind the calls is not given here.

Key:
[1] = AUC (0 to infinity) in BALB/c mouse at 10 mg/kg, iv measured for 24 hrs post dose by LC-MS/MS analysis; format: ADME, organism-based; parameters: dose 10 mg/kg, time infinity, route intravenous; details: in vivo
[2] = molecular target: 3',5'-cyclic-AMP phosphodiesterase 4B (Homo sapiens, UniProt Q07343); experiment: Inhibition of recombinant His-tagged human PDE4B expressed in Sf9 cells using cAMP as substrate preincubated with enzyme for 15 mins followed by substrate addition and incubated for 1 hr by PDELight HTS cAMP phosphodiesterase Kit based luminometry
3',5'-cyclic-AMP phosphodiesterase 4B, sequence (Q07343 whole entry): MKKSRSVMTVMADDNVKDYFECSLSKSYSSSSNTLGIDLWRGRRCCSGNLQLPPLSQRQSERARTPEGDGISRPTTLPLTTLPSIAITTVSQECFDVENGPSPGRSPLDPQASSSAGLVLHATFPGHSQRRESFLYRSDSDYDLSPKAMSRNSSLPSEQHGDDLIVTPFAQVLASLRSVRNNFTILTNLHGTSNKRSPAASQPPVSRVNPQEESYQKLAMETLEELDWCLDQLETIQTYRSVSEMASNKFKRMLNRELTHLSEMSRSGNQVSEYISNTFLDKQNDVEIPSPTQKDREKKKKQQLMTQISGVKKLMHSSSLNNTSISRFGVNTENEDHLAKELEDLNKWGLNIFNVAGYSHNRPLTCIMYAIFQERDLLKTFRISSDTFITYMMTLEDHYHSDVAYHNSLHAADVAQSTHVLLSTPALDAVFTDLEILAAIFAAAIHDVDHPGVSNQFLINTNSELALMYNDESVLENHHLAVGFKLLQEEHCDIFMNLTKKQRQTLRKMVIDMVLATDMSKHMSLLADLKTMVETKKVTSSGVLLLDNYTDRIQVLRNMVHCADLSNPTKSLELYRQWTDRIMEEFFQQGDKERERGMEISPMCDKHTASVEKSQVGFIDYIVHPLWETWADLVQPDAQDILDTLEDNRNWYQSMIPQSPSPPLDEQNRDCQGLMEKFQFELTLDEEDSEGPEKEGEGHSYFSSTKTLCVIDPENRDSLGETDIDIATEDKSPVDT

[3] = molecular target: 3',5'-cyclic-AMP phosphodiesterase 4D (Homo sapiens, UniProt Q08499); experiment: Inhibition of PDE4D2 (unknown origin) using cAMP as substrate preincubated with enzyme for 15 mins followed by substrate addition and incubated for 1 hr by PDELight HTS cAMP phosphodiesterase Kit based luminometry
3',5'-cyclic-AMP phosphodiesterase 4D, sequence (Q08499 whole entry): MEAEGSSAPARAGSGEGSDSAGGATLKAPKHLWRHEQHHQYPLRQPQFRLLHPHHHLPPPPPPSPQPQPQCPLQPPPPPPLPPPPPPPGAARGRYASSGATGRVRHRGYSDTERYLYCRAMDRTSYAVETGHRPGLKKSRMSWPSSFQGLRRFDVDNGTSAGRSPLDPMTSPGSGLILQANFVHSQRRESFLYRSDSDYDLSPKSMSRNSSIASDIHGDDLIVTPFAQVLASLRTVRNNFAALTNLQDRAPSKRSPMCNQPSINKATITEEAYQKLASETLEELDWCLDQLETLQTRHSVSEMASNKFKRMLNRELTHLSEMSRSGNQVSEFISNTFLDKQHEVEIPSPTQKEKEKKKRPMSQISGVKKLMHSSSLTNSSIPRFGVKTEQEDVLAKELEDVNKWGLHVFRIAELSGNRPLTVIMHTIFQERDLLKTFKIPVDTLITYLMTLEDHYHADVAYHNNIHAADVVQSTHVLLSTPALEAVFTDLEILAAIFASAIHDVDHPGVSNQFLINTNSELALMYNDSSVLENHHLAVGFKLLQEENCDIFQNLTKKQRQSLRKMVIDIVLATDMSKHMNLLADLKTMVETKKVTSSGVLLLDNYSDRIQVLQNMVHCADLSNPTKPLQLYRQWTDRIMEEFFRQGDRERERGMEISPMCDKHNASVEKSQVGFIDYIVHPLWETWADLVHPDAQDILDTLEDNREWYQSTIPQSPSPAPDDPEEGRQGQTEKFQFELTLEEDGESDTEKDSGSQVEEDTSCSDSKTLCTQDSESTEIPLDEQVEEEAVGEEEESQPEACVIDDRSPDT

[4] = species: Homo sapiens; experiment: Selectivity index, ratio of IC50 for PDE4D2 (unknown origin) to IC50 for recombinant His-tagged human PDE4B expressed in sf9 cells using cAMP as substrate by PDELight HTS cAMP phosphodiesterase Kit based luminometry
[5] = molecular target: PDE4C (Homo sapiens, UniProt Q08493); experiment: Inhibition of PDE4C (unknown origin) at 100 uM using cAMP as substrate preincubated with enzyme for 15 mins followed by substrate addition and incubated for 1 hr by PDELight HTS cAMP phosphodiesterase Kit based luminometry relative to control; details: probe cAMP
PDE4C, sequence (Q08493 whole entry): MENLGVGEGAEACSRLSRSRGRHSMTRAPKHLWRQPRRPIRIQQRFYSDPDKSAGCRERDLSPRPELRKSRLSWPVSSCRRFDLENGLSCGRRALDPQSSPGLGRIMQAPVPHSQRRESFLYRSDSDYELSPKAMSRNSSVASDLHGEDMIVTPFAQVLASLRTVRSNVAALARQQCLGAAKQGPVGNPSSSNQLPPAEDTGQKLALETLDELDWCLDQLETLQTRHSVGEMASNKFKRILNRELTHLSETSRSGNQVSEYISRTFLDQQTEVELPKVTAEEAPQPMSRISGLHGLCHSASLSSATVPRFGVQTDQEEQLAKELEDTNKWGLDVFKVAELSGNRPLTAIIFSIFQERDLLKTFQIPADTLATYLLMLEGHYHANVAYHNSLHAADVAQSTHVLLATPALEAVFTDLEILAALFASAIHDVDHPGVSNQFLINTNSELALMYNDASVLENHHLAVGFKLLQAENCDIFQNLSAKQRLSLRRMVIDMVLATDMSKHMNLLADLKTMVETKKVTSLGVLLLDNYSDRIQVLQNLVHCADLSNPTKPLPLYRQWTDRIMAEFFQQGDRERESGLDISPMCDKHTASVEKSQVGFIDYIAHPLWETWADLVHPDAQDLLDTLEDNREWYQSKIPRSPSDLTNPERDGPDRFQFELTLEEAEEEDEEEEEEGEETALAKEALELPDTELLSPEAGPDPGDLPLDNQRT

[6] = species: Homo sapiens; experiment: Selectivity for recombinant His-tagged human PDE4B over PDE4C (unknown origin)
[7] = system: RAW264.7; experiment: Antiinflammatory activity in mouse RAW264.7 cells assessed as inhibition of LPS-induced TNFalpha mRNA expression preincubated for 30 mins followed by LPS stimulation and incubated for 10 hrs by qPCR analysis; format: functional, cell-based
[8] = molecular target: Dual specificity calcium/calmodulin-dependent 3',5'-cyclic nucleotide phosphodiesterase 1A (Homo sapiens) (UniProt P54750); experiment: Inhibition of recombinant N-terminal GST-tagged full-length human PDE1A1 expressed in Sf9 cells using FAM-cAMP as substrate at 10 uM incubated for 60 mins by fluorescence plate reader analysis
Dual specificity calcium/calmodulin-dependent 3',5'-cyclic nucleotide phosphodiesterase 1A (Homo sapiens), sequence (P54750 whole entry): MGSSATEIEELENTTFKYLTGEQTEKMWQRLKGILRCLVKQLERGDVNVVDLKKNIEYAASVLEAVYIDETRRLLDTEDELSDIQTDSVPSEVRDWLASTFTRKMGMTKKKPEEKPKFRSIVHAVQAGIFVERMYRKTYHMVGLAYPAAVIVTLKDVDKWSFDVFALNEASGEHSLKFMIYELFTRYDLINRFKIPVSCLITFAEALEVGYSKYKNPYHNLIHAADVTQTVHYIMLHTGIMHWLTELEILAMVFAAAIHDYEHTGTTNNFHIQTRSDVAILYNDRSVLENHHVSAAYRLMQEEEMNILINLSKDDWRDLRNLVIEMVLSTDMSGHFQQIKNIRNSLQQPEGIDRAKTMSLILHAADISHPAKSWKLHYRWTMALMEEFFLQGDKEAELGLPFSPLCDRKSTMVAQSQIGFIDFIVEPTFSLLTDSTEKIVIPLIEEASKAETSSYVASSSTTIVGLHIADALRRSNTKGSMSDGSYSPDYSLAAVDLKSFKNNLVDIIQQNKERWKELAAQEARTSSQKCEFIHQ

[9] = molecular target: Cone cGMP-specific 3',5'-cyclic phosphodiesterase subunit alpha' (Homo sapiens) (UniProt P51160); experiment: Inhibition of recombinant N-terminal GST-tagged full length human PDE6C expressed in Sf9 cells using FAM-cGMP as substrate at 10 uM incubated for 60 mins by fluorescence plate reader analysis
[10] = molecular target: High affinity 3',5'-cyclic-AMP phosphodiesterase 7A (Homo sapiens) (UniProt Q13946); experiment: Inhibition of recombinant N-terminal GST tagged human PDE7A1 (122-end aa) expressed in Sf9 cells using FAM-cAMP as substrate at 10 uM incubated for 60 mins by fluorescence plate reader analysis
High affinity 3',5'-cyclic-AMP phosphodiesterase 7A (Homo sapiens), sequence (Q13946 whole entry): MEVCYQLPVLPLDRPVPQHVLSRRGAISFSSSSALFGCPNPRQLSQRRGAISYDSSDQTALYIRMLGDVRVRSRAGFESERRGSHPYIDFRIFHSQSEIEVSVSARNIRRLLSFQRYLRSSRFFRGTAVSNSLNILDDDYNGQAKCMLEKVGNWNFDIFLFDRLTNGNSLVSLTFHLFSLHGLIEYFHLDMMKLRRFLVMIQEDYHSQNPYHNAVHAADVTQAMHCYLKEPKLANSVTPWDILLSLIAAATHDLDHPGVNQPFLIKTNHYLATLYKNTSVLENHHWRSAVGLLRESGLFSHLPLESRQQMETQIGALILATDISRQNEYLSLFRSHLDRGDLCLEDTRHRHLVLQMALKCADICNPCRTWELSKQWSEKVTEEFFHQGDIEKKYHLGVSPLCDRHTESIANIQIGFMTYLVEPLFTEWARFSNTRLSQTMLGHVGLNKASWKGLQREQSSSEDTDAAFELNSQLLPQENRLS

[11] = molecular target: High affinity cGMP-specific 3',5'-cyclic phosphodiesterase 9A (Homo sapiens) (UniProt O76083); experiment: Inhibition of recombinant N-terminal GST-tagged full length human PDE9A2 expressed in Sf9 cells using F AM-cGMP as substrate at 10 uM incubated for 60 mins by fluorescence plate reader analysis
High affinity cGMP-specific 3',5'-cyclic phosphodiesterase 9A (Homo sapiens), sequence (O76083 whole entry): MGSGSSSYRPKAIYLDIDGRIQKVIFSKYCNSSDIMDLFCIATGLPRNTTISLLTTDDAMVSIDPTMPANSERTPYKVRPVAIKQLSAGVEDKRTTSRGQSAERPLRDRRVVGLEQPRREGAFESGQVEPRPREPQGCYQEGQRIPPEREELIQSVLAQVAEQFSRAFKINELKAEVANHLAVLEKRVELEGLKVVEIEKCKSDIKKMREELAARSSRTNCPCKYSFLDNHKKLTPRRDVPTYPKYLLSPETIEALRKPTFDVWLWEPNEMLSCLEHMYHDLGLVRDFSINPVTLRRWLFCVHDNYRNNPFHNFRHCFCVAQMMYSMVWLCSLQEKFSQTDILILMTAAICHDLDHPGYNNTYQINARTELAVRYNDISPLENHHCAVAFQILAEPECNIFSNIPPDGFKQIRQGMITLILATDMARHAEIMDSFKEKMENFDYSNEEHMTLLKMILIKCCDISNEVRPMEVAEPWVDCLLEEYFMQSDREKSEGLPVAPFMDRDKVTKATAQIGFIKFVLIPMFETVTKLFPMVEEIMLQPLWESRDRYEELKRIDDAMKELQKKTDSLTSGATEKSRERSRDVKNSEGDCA

[12] = molecular target: cAMP and cAMP-inhibited cGMP 3',5'-cyclic phosphodiesterase 10A (Homo sapiens) (UniProt Q9Y233); experiment: Inhibition of recombinant N-terminal GST-tagged full length human PDE10A2 expressed in Sf9 cells using FAM-cAMP as substrate at 10 uM incubated for 60 mins by fluorescence plate reader analysis
[13] = molecular target: Dual 3',5'-cyclic-AMP and -GMP phosphodiesterase 11A (Homo sapiens) (UniProt Q9HCR9); experiment: Inhibition of recombinant N-terminal GST-tagged full length human PDE11A4 expressed in Sf9 cells using FAM-cAMP as substrate at 10 uM incubated for 60 mins by fluorescence plate reader analysis
Dual 3',5'-cyclic-AMP and -GMP phosphodiesterase 11A (Homo sapiens), sequence (Q9HCR9 whole entry, looked up): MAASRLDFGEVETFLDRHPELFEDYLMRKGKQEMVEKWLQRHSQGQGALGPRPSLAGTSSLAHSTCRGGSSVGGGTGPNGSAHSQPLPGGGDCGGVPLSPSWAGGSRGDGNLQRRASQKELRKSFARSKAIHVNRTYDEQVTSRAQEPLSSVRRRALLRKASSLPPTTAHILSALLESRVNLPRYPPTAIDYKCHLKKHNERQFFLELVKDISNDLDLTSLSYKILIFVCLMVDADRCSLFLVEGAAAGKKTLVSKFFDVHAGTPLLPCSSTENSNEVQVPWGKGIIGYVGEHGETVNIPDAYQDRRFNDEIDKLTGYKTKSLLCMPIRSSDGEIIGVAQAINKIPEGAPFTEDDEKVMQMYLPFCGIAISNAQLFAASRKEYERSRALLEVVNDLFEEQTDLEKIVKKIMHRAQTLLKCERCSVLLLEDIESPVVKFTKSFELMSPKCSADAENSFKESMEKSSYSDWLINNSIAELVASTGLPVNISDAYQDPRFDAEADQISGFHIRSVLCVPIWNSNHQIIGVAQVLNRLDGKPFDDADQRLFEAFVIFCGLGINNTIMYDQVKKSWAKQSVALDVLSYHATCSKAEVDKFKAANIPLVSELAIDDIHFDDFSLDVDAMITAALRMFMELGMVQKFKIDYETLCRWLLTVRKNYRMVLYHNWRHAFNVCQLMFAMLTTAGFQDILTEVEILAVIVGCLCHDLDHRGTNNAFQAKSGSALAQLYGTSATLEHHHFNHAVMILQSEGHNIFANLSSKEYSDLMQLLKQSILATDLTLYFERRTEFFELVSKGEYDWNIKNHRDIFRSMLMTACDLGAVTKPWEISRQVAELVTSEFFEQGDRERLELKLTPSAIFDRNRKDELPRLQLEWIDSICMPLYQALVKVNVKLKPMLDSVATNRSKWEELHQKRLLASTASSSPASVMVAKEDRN

[14] = Metabolic stability in rat liver microsomes assessed as compound remaining at 5 uM incubated for 30 mins in presence of air measured after 60 mins by LC-MS/MS analysis; format: ADME, Microsome; details: read-out: Stability
[15] = Cmax in BALB/c mouse at 10 mg/kg, iv measured for 24 hrs post dose by LC-MS/MS analysis; format: ADME, organism-based; parameters: dose 10 mg/kg, route intravenous; details: in vivo
[16] = AUC (0 to extrap) in BALB/c mouse at 10 mg/kg, iv measured for 24 hrs post dose by LC-MS/MS analysis; format: ADME, organism-based; details: in vivo
[17] = Clearance in BALB/c mouse at 10 mg/kg, iv measured for 24 hrs post dose by LC-MS/MS analysis; format: ADME, organism-based; details: in vivo
[18] = Half life in BALB/c mouse at 10 mg/kg, iv measured for 24 hrs post dose by LC-MS/MS analysis; format: ADME, organism-based; details: in vivo
[19] = MRTlast in BALB/c mouse at 10 mg/kg, iv measured for 24 hrs post dose by LC-MS/MS analysis; format: ADME, organism-based; details: in vivo
[20] = system: Danio rerio; experiment: Anti-sclerotic activity in MOG/CFA-induced zebra fish EAE model assessed as reduction in lesion score at 3 to 30 mg/kg, ip measured for 7 days; format: functional, organism-based
[21] = Cardiotoxicity in zebrafish embryos assessed as artio-ventricular ratio at 1 to 100 uM; format: toxicity, Danio rerio
[22] = system: Rattus norvegicus; experiment: Antiinflammatory activity in complete Freund's adjuvant-induced Wistar rat arthritis model assessed as reduction in TNFalpha expression in serum at 30 mg/kg, ip administered from 11th day to 20th day by ELISA; format: functional, organism-based
[23] = system: Rattus norvegicus; experiment: Antiinflammatory activity in complete Freund's adjuvant-induced Wistar rat arthritis model assessed as reduction in IL1beta expression in serum at 30 mg/kg, ip administered from 11th day to 20th day by ELISA; format: functional, organism-based
[24] = system: Rattus norvegicus; experiment: Antiinflammatory activity in complete Freund's adjuvant-induced Wistar rat arthritis model assessed as reduction in IL6 expression in serum at 30 mg/kg, ip administered from 11th day to 20th day by ELISA; format: functional, organism-based
[25] = Toxicity in zebrafish embryos assessed as teratogenicity score at 1 to 100 uM incubated for 5 dpf; parameters: species or system Danio rerio; details: in vivo
[26] = Hepatotoxicity in zebrafish embryos assessed as yolk sac retention at 1 to 100 uM incubated for 7 dpf; format: toxicity, Danio rerio; details: in vivo
[27] = Toxicity in zebrafish embryo assessed as change in body shape at 1 to 100 uM; parameters: species or system Danio rerio; details: in vivo
[28] = Toxicity in zebrafish embryo assessed as effect in somite formation at 1 to 100 uM; parameters: species or system Danio rerio; details: in vivo
[29] = Toxicity in zebrafish embryo assessed as effect in tail formation at 1 to 100 uM; parameters: species or system Danio rerio; details: in vivo
[30] = Toxicity in zebrafish embryo assessed as effect in fin formation at 1 to 100 uM; parameters: species or system Danio rerio; details: in vivo
[31] = Toxicity in zebrafish embryo assessed as effect in upper jaw formation at 1 to 100 uM; parameters: species or system Danio rerio; details: in vivo
[32] = Toxicity in zebrafish embryo assessed as effect in intestine formation at 1 to 100 uM; format: tissue-based, Danio rerio; details: in vivo
[33] = Toxicity in zebrafish embryo assessed as effect in liver formation at 1 to 100 uM; parameters: species or system Danio rerio; details: in vivo
[34] = system: Rattus norvegicus; experiment: Antiinflammatory activity in complete Freund's adjuvant-induced Wistar rat arthritis model assessed as reduction in TNFalpha mRNA expression at 30 mg/kg, ip administered from 11th day to 20th day by qPCR analysis; format: functional, organism-based

AUC(0-inf) [1]: 1.16 µg·h/mL
IC50 [2]: 0.39 µM
IC50 [3]: 10.7 µM
inhibition at 1 h, 100 µM [5]: 20 to 30%
Selectivity ratio [6]: > 250
inhibition [8]: 12%
inhibition [9]: 2%
inhibition [10]: 3%
inhibition [11]: 9%
inhibition [12]: 15%
inhibition [13]: 7%
remaining at 60 min, 5 µM [14]: 42.2%
Cmax [15]: 2.85 µg/mL
%AUCextra [16]: 6.23%
clearance [17]: 8.59 L/h/kg
half-life [18]: 38.4 min
MRT last at 24 h [19]: 21.6 min
SMILES: C=CCn1cc(-c2nc3ccccc3nc2Cl)c2cc(OC)ccc21
Ratio IC50 [4]: 27
inhibition [7]: Active
inhibition [20]: inactive
Activity [21]: Non-Toxic
inhibition [22]: Active
inhibition [23]: Active
inhibition [24]: Active
Activity [25]: Non-Toxic
Activity [26]: Non-Toxic
Activity [27]: Non-Toxic
Activity [28]: Non-Toxic
Activity [29]: Non-Toxic
Activity [30]: Non-Toxic
Activity [31]: Toxic
Activity [32]: Non-Toxic
Activity [33]: Non-Toxic
inhibition [34]: Active
